What was measured:
[1] = biological target: BTK in B18.2 cells (Homo sapiens, UniProt Q06187); assay: Cellular BTK activity, immune complex kinase assay after treatment of cells; format: cell-based; conditions: treatment of B18.2 cells
Excerpt: PIU: Phosphoimager units; DSU, densitometric scanning units; CON, control.
Polyclonal antibodies to BTK were generated by immunization of rabbits with glutathione S-transferase (GST) fusion proteins (Pharmacia Biotech Inc.) containing the first 150 amino acids of BTK. The monoclonal anti-Fas antibody (F22120) was obtained from the Transduction Laboratories, Inc. (Lexington, Ky.). […] Following electrophoresis, kinase gels were dried onto Whatman 3M filter paper and subjected to phosphoimaging on a Molecular Imager (Bio-Rad, Hercules, Calif.) as well as autoradiography on film. Similarly, all chemiluminescent BTK Western blots were subjected to three dimesional densitometric scanning using the Molecular Imager and Imaging Densitometer using the Molecular Analyst/Macontosh version 2.1 software following the specifications of the manufacturer (Bio-Rad). For each drug concentration, a BTK kinase activity index was determined by comparing the ratios of the kinase activity in phosphorimager units (PIU) and density of the protein bands in densitometric scanning units (DSU) to those of the baseline sample and using the formula: Activity Index=[PIU of kinase band/DSU of BTK protein band]test sample: [PIU of kinase band/DSU of BTK protein band]baseline control sample. […]

[2] = biological target: HCK (Homo sapiens, UniProt P08631); assay: Cell-free tyrosine kinase inhibition assay HCK from transfected COS-7 cells; format: biochemical
Chain of HCK (P08631 whole entry, species assumed): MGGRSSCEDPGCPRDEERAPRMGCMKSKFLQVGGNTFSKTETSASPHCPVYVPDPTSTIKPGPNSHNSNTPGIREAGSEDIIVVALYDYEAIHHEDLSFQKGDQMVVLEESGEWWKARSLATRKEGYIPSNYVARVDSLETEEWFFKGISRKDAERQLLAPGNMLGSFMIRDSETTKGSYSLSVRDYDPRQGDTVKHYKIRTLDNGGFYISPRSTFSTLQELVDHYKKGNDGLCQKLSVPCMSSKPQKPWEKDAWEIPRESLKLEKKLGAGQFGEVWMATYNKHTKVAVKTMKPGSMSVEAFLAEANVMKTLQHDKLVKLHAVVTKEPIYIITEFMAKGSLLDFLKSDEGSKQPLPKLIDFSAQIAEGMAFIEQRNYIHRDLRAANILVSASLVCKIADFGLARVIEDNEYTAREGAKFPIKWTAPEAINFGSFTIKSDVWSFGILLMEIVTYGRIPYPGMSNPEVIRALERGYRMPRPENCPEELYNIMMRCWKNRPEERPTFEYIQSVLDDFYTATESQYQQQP

Chain of BTK in B18.2 cells (Q06187 whole entry): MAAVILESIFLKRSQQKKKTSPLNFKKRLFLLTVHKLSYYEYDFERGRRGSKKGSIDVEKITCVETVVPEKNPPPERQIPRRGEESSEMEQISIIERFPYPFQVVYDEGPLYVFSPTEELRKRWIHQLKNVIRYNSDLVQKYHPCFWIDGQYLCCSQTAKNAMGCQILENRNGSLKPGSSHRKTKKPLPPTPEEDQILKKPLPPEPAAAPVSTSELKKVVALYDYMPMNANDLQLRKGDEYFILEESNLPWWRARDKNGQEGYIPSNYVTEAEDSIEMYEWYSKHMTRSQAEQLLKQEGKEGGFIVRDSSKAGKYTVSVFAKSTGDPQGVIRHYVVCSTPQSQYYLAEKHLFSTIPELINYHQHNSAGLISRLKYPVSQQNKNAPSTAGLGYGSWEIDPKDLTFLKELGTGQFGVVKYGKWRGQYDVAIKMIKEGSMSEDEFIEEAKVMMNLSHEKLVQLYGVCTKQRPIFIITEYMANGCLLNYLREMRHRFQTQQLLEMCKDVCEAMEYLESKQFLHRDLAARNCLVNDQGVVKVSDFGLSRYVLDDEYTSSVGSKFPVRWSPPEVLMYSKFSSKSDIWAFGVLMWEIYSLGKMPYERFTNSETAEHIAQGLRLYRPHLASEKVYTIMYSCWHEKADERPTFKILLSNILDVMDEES

## C/C(O)=C(\C#N)C(=O)Nc1cc(Br)ccc1Br [LFM-A13, α-Cyano-β-hydroxy-β-methyl-N-(2,5-dibromophenyl)-propenamide]
[1]
  cellular BTK activity: dose-dependent inhibition of cellular BTK activity
[2]
  IC50: > 278 µM
[2]; concentrations as high as 100 μg/ml (~278 μM)
  effect on enzymatic activity of HCK: did not affect the enzymatic activity

From patent publication US6753348B2, “BTK inhibitors and methods for their identification and use” (Parker Hughes Institute, priority 1998, dated 2004)
